Data set [1] is described as follows: Earlier CBD products (isolate powder, liquid CBD/vitamin E mixture, MCT emulsion) as used orally. Conditions: particularly relieving stiffness in joints. The data set is classed as in vivo. An excerpt: Prior to preparing the compositions described herein, other CBD products were made, which include food products, including beverages, and mixtures with multiple components, such as an oil/liquid form that is taken directly from a dropper. The products can be flavored. A CBD isolate powder, which is a high purity CBD, can have powerful, and instant benefits. A water soluble CBD/vitamin E mixture can be included in food and drink such as cold pressed juice. […] However, the powder was difficult to work with and dose.
(§1) By mixing with fractionated coconut oil, or medium-chain triglyceride (MCT), a stable emulsion can be formed, which simplifies oral administration of CBD. Some products can mix the full spectrum CBD oil with alcohol or MCT oil, which is known as a tincture. […] For example, a batch of CBD/MCT oil was made using a ratio of 100 mg/ml, which allowed delivery as a spray to the mouth of 20 mg CBD per spray (one spray per serving). In another experiment, a second batch of oil targeted at 33 mg/ml, which targeted 6-7 mg per spray (2-3 sprays per serving). Performance can continue to be less impressive than the CBD powder.

The nature of data set [2]: Physical properties of CBD and its oil compositions. The data set is classed as physicochemical. As to conditions: isolate powder, about 99% pure CBD.
From the text: The highest purity CBD is known as an isolate. The clear oil, or distillate, goes through another purification process, where it is converted into powder using a solvent, for example, hexane, at low heat.
as §1

For data set [3] the following is noted: increase of 1 mMol in plasma caprylic acid levels; cited from earlier work.

For `C=C(C)[C@@H]1CCC(C)=C[C@H]1c1c(O)cc(CCCCC)cc1O` [CBD isolate powder, cannabidiol], in data set [1], the anti-inflammatory effect result was “exhibited anti-inflammatory properties”. Moreover, the water solubility entry in data set [2] was “not water soluble”.

Take `CCCCCCCC(=O)O` [caprylic acid]: the “increase of ketone body production” value in data set [3] is “five-fold”.
